Entries after “also recorded” stand apart in the source; their conditions may differ.
Assays:
[1] = test system: Sardinian Alcohol preferring rats (sP); experiment: Spontaneous alcohol intake in non deprived sP rats; assay type: in vivo, rat
Experimental: Tests were carried out in Sardinian Alcohol preferring rats (sP), i.e. a rodent line genetically selected for their spontaneous alcohol consume. These animals were adopted as the main specific animal model in the research program due to the fact that these rats (kept in a free-choice regimen between water and a 10% ethanol solution) consume large amounts of alcohol (6-7 g/Kg/day), sharing a great preference for […] (80-100%).
Under the standard, these rats are subjected to homecage two-bottle free choice regimen between 10% alcohol and water with unlimited access (24 h/day) and they show these features: daily intake of about 6 g/Kg of alcohol; preference ratio (alcohol solution vs total fluids) above 80%; fractioning of daily alcohol intake in 3-4 binges; achievement of BALs (Blood Alcohol Levels) above 50 mg % at each binge; induction of pharmaceutical effects (anxiolysis, motor stimulation) and regulation by a central, hedonic set-point mechanism.
1. Spontaneous Alcohol Intake in Non Deprived sP Rats
According to this model, the alcohol intake in a two bottles free-choice regimen represents the “active drinking” phase of human alcoholism. Therefore the tested active compounds should decrease the propension of rats to consume alcohol. […] In FIG. 8A the results of a single experiment are shown. Specifically 10, 20, 25 and 50 mg/kg doses of polymorphic Form A were administered and the alcohol intake was evaluated.

rats [2] = experiment: Irwin's test and body temperature in rats; assay type: in vivo, rat
Experimental: (§1) The possible adverse effects of polymorphic Form A on the CNS, cardiovascular, respiratory and immune functions were evaluated in vitro and in vivo (rats and dogs) in different experimental models. In the in vivo tests, the tested compound was always given by single oral administration at the doses of 100, 300 and 1000 mg/kg.
Neurobehavioural effects of polymorphic Form A have been investigated according to the Irwin Test by using a standard observation battery, which allows the assessment of both peripheral and central nervous system activities (e.g. motor activity, motor co-ordination, somatic sensory/motor reflex responses, autonomic responses); body temperature was measured by means of an electronic thermometer.

rats [3] = experiment: Proconvulsant activity in rats (pentylenetetrazol); assay type: in vivo, rat; conditions: with pentylenetetrazol
Experimental: as §1

HERG tail current = biological target: T1, HERG tail current (Homo sapiens, UniProt Q12809); experiment: HERG tail current, patch clamp in HEK-293 cells; assay type: cell-based
T1 construct: expressed in transfected cells; host or cells: HEK-293
Text: A possible blocking effect of polymorphic Form A on Herg tail current recorded from HEK-293 cells (Human Embryonic Kidney cells) stably transfected with HERGG-1 cDNA was investigated. The method consisted in measuring the HERG tail current by using the patch clamp techniques in the whole cell configuration. Compounds which inhibited HERG current were recognized to prolong the cardiac action potential and increase QT interval.

[4] = test system: isolated canine Purkinje fibres; experiment: Cardiac action potential in isolated canine Purkinje fibres
Experimental: A possible adverse effect induced by polymorphic Form A on cardiac action potential was evaluated in isolated canine Purkinje fibres. Transmembrane action potential was measured by means of the intracellular microelectrode technique; this method is recommended to detect the capacity of a substance to induce prolongation of the QT interval.

conscious rats = experiment: Respiratory evaluation in conscious rats (whole body plethysmography); assay type: in vivo, rat
Experimental: as §1
The effect of polymorphic Form A on respiratory parameters (respiratory rate, peak inspiratory and peak expiratory flows, inspiration and expiration times, airway resistance index, minute volume and tidal volume) was assessed in conscious rats after single oral administration. Respiration was measured by the whole body plethysmography method.

immune system = experiment: PCF test (Plaque Forming Cells) in rats; assay type: in vivo, rat
Experimental: A possible effect of polymorphic Form A on the immune system was evaluated by using the method system of Plaque Forming Cells (PCF) in the rat, following oral administration to rats for 28 days at the doses of 150, 250 and 500 mg/kg. The method is based on the stimulation of the immune system with an antigenic agent (sheep's red blood cells) and on the evaluation of the effect of the test item on the immune response. The immune response was assessed by measuring the proportion of splenocytes which produced antibodies against the antigenic agent (Plaque Forming Cells) in presence of complement. […] In fact, statistical analysis evidenced a significativity at 150 mg/kg, but not at 250 mg/kg; these findings might indicate that the effects is observed at these doses could be due to the variability normally present in this test as heterogeneity in immune response is often seen and it is likely to be related to individual differences in immune sensitivity, […]

Acute toxicity in rat = conditions: in vivo, single
Experimental: Single and repeated-dose toxicity studies in rodents and non-rodents were carried out to support the clinical trials of the test compound, i.e. polymorphic Form A. Single toxicity studies were performed in mice and rats by the intraperitoneal and the oral routes. Repeated oral studies (28 days administration followed by 14 days recovery period) were performed in rats and dogs.

Rat (Bone marrow Cells) = experiment: Micronucleus test in rat bone marrow; assay type: in vivo; conditions: os, single, 500-2000 mg/kg, 24 and 48 hours
Experimental: Any clastogenic or spindle poison activity of polymorphic Form A was investigated by detecting micronucleated polychromatic erythrocytes in the bone marrow of treated rats. The study was conducted in compliance with the EC Guidelines. The method involved searching for the presence of a chromosome fragment, or a number of chromosomes, resulting from a deletion or a mitotic spindle poison effect, in the polychromatic erythrocytes in the bone marrow. Clastogenic products may produce, at the moment of mitosis, chromosome breakage, while spindle poisons disturb the structure of the mitotic spindles. An acentric fragment of a chromosome that has not migrated normally is not retained in the nucleus of the daughter cell, and appears in the cytoplasm. It is then known as a Howell-Jolly body or micronucleus. The micronucleus can be detected in polychromatic erythrocytes, as these cells expel their main nucleus shortly after the last mitosis and the micronucleus remains in the red blood cells. Male and female Sprague Dawley rats were treated orally once with 2000-1000-500 mg/kg of polymorphic Form A and 24 and 48 hours after the treatment their femurs were sampled and bone marrow cells were extracted.

T1 sequence (Q12809 whole entry): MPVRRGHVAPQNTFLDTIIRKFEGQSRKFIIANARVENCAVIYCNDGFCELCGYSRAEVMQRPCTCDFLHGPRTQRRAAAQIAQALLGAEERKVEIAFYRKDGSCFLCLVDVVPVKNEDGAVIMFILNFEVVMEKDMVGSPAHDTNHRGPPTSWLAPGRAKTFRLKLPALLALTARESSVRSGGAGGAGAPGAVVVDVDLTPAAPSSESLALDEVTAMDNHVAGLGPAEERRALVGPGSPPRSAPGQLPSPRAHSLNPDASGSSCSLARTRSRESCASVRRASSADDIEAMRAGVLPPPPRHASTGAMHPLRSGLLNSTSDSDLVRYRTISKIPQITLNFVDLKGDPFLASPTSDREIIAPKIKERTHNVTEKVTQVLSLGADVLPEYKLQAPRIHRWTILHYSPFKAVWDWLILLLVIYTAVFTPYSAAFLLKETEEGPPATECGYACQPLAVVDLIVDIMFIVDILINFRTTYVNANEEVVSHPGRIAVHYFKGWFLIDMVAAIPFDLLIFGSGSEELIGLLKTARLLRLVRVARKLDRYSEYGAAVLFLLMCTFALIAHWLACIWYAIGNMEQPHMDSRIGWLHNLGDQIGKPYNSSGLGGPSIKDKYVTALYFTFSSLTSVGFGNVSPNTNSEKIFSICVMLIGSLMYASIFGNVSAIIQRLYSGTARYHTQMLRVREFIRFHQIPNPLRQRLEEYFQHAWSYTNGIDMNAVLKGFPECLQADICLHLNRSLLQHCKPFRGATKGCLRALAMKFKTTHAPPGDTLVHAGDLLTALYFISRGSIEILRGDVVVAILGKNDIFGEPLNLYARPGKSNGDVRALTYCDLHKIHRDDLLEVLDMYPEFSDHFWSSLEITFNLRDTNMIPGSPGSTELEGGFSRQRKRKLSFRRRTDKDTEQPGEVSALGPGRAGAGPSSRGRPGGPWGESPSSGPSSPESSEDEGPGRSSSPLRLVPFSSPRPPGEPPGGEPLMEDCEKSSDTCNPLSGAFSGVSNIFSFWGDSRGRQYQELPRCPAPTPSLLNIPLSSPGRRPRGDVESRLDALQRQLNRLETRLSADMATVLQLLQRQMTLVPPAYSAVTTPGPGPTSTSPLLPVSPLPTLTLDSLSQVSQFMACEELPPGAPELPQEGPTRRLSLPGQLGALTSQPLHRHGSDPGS

## COCCCC(=O)NCc1ccc(C(F)(F)F)cc1 [Polymorphic Form A, N-[4-(trifluoromethyl)benzyl]-4-methoxybutyramide]
[1]; 10 mg/kg, single experiment of FIG. 8A
  Alcohol intake: significantly reduced alcohol intake
[1]; 10-100 mg/kg, intragastric acute administration
  Alcohol intake: decreases the alcohol intake
[1]; sP rats, data not reported
  Food intake: normal food intake
  Water intake: compensatory increase of water intake
Rats [2]; 100 mg/kg single oral
  Body temperature: not affected
  Spontaneous locomotor activity (Irwin test): transient decrease in spontaneous locomotor activity
Rats [2]; 1000 mg/kg single oral, all the effects were reversible
  Posture / neurobehavioural signs (Irwin test): tip toe position, ataxic and subsequently a lying recumbent or flattened position
Rats [2]; higher doses (300 and 1000 mg/kg) single oral, with myorelaxant effect and decrease in awareness
  Effect on locomotion (Irwin test): more marked and more long lasting
Rats [2]; higher doses (300 and 1000 mg/kg), up to four hours
  Body temperature: significant decrease in body temperature
Rats [3]; 100 and 300 mg/kg oral
  Time of occurrence of seizures: increase in the time of occurrence of seizures
Rats [3]; all the doses (100, 300, 1000 mg/kg oral)
  Proconvulsant effect: no statistical significant proconvulsant effect
HERG tail current; 10^−4 M, highest concentration tested
  Reduction of HERG tail current: about 50%
HERG tail current; 10^−6 and 10^−5 M
  Inhibition of HERG tail current: slight and non dose-dependent decrease
HERG tail current; 10^−7 M
  Inhibition of HERG tail current: no statistically significant inhibition
HERG tail current; all concentrations, 70% is the threshold for an active compound
  Inhibition of HERG tail current, highest value reached: < 70%
[4]; 10^−4 M
  Action potential duration of repolarisation: significant decrease in action potential duration of repolarisation
[4]; 10^−7, 10^−6 and 10^−5 M, normal or low stimulation rates
  Action potential parameters: no statistically significant effect
[4]; all the concentrations tested
  Early or delayed after-depolarisation: neither early nor delayed after-depolarisation were recorded
Conscious rats; 100 mg/kg single oral
  Respiratory parameters: no relevant effect on respiratory parameters
Conscious rats; 100, 300 and 1000 mg/kg single oral
  Peak inspiratory and peak expiratory flows, minute volume, airway resistance index: No statistically change
Conscious rats; 300 and 1000 mg/kg single oral
  Respiratory rate and tidal volume: tachypnoea associated to a transient reduction in tidal volume
Immune system; 500 mg/kg oral, 28 days
  Immunosuppressant activity (Plaque Forming Cells): clear-cut
Immune system; 150 and 250 mg/kg oral, 28 days
  Immunosuppressant activity (Plaque Forming Cells): comparable borderline effect
Immune system; oral, 28 days, 150, 250 and 500 mg/kg
  Immunosuppressant activity (Plaque Forming Cells): slight and not dose-dependent immunosuppressant activity
Acute toxicity in rat; ip, dose-range 200-1000
  LD50: ~800 mg/kg
Acute toxicity in rat; oral, os, dose-range 2000-4000
  LD50: > 4000 mg/kg
Rat (Bone marrow Cells)
  Genotoxicity, Micronucleus test result: no clastogenic activity; also recorded: Negative

Source: patent USRE47078E1, “Polymorphic forms of N-[4-(trifluoromethyl)benzyl]-4-methoxybutyramide” (Laboratorio Farmaceutico C.T. S.R.L., priority 2007, dated 2018)
